Results published in patent publication US4345938A, “Herbicidal 2-haloacetanilides” (Monsanto Company, priority 1980, dated 1982).
Read-outs that look alike come from different tables or passages of the source.

How the values were obtained:
Format in all cases: in vivo
Echinochloa crus-galli [1] = assay: Field transplant rice test, applied 0 DAT, EC; settings: 0 h, read-out: Percent Inhibition, EC; for inhibition at 375 g/ha: 0.375 Kg/Ha; for inhibition at 750 g/ha: 0.75 Kg/Ha; for inhibition at 1500 g/ha: 1.5 Kg/Ha; for inhibition at 3000 g/ha: 3.0 Kg/Ha
Summary of the method: (§1)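 Field test in transplanted rice, herbicide applied as granules (2.5% or 5.0% w/w active) at transplanting (0 DAT). Rates from 3.0 kg/ha down to 0.375 kg/ha. Weed control observed weekly from 2 to 6 weeks after transplant, reported at 2, 4 and 6 WAT.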

Echinochloa crus-galli [2] = assay: Greenhouse transplant rice test, EC; settings: about 3 WAT, read-out: Percent Inhibition, EC
From the text: (§2) The test procedure used in this greenhouse test is as follows: Ray silt loam top soil containing about 0.05% by weight of krillium and sifted through a […] screen is fumigated about 5-10 days prior to use. Pots are then filled with said Ray silt loam soil to a level to allow for a 1 in. (2.54 cm) flooding depth. Rice plants (Bluebelle) of 2 to 3 weeks age are transplanted to the pots and bulbs or seeds of the test weeds also planted in the pots. The pots are then flooded and the test chemical applied to the surface of the flood water. The flood water is reduced to allow for germination of the Echinochloa crus-galli (barnyardgrass) seed and subsequently reflooded and maintained in that condition. Observations of percent inhibition using a scale of 0-100% are made about 3 weeks after transplant (WAT).
(§3) The test data in Table III for all compounds was obtained under identical test conditions. The weeds used in the tests herein have the following abbreviations in the tables: Echinochloa crus-galli (EC), Monochloria vaginalis (MV), Cyperus Serotinus (CS), Eleocharis Kuroguwai (EK) and Sagittaria trifolia (ST).

Rice = assay: Field transplant rice test, applied 9 DAT, rice injury; settings: for inhibition at 375 g/ha / inhibition at 750 g/ha / inhibition at 1500 g/ha / inhibition at 3000 g/ha: Oryza sativa, 216 h, read-out: Percent Inhibition, Rice; for inhibition at 375 g/ha: 0.375 Kg/Ha; for inhibition at 750 g/ha: 0.75 Kg/Ha; for inhibition at 1500 g/ha: 1.5 Kg/Ha; for inhibition at 3000 g/ha: 3.0 Kg/Ha
Summary of the method: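 Field transplant rice; herbicides applied as granules (2.5% by weight active, 5.0% for one prior-art comparator) at 9 days after transplant. Rates from 3.0 kg/ha (2.67 lb/A) down to 0.375 kg/ha (0.34 lb/A). Crop injury observed weekly from 3 to 7 weeks after transplant.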

Eleocharis kuroguwai [3] = assay: Field transplant rice test, applied 0 DAT, EK; settings: 0 h, read-out: Percent Inhibition, EK; for inhibition at 375 g/ha: 0.375 Kg/Ha; for inhibition at 750 g/ha: 0.75 Kg/Ha; for inhibition at 1500 g/ha: 1.5 Kg/Ha; for inhibition at 3000 g/ha: 3.0 Kg/Ha
Summary of the method: as §1

Monochoria vaginalis = assay: Greenhouse transplant rice test, MV; settings: Pontederia vaginalis, about 3 WAT, read-out: Percent Inhibition, MV
From the text: as §2, §3

Sagittaria trifolia = assay: Field transplant rice test, applied 9 DAT, ST; settings: 216 h, read-out: Percent Inhibition, ST; for inhibition at 375 g/ha: 0.375 Kg/Ha; for inhibition at 750 g/ha: 0.75 Kg/Ha; for inhibition at 1500 g/ha: 1.5 Kg/Ha; for inhibition at 3000 g/ha: 3.0 Kg/Ha
Summary of the method: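 Field test in transplant rice: herbicides applied 9 DAT as granules (2.5% or 5.0% by weight active) at 3.0 down to 0.375 kg/ha. Weed control observed weekly from 3 to 7 WAT.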

Eleocharis kuroguwai [4] = assay: Field transplant rice test, applied 9 DAT, EK; settings: for inhibition at 375 g/ha / inhibition at 750 g/ha / inhibition at 1500 g/ha / inhibition at 3000 g/ha: Eleocharis kuroguwai, 216 h, read-out: Percent Inhibition, EK; for inhibition at 375 g/ha: 0.375 Kg/Ha; for inhibition at 750 g/ha: 0.75 Kg/Ha; for inhibition at 1500 g/ha: 1.5 Kg/Ha; for inhibition at 3000 g/ha: 3.0 Kg/Ha
Summary of the method: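 Field test in transplanted rice, herbicides applied as granules (2.5% or 5.0% w/w active) 9 days after transplant at 3.0 down to 0.375 kg/ha. Weed control observed weekly from 3 to 7 weeks after transplant.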

CCCCOc1cccc(CC)c1N(C)C(=O)CCl [Example 1, N-methyl-2'-n-butoxy-6'-ethyl-2-chloroacetanilide]
inhibition at 375 g/ha (Echinochloa crus-galli [1]; 2 WAT): 97% | inhibition at 375 g/ha (Echinochloa crus-galli [1]; 4 WAT): 100% | inhibition at 375 g/ha (Echinochloa crus-galli [1]; 6 WAT): 100% | inhibition at 750 g/ha (Echinochloa crus-galli [1]; 2 WAT): 98% | inhibition at 750 g/ha (Echinochloa crus-galli [1]; 4 WAT): 100% | inhibition at 750 g/ha (Echinochloa crus-galli [1]; 6 WAT): 98% | inhibition at 1500 g/ha (Echinochloa crus-galli [1]; 2 WAT): 100% | inhibition at 1500 g/ha (Echinochloa crus-galli [1]; 4 WAT): 100% | inhibition at 1500 g/ha (Echinochloa crus-galli [1]; 6 WAT): 100% | inhibition at 3000 g/ha (Echinochloa crus-galli [1]; 2 WAT): 98% | inhibition at 3000 g/ha (Echinochloa crus-galli [1]; 4 WAT): 100% | inhibition at 3000 g/ha (Echinochloa crus-galli [1]; 6 WAT): 100% | inhibition at 280 g/ha (Echinochloa crus-galli [2]; 0.28 Kg/Ha): 100% | inhibition at 560 g/ha (Echinochloa crus-galli [2]; 0.56 Kg/Ha): 100% | inhibition at 1120 g/ha (Echinochloa crus-galli [2]; 1.12 Kg/Ha): 100% | inhibition at 2240 g/ha (Echinochloa crus-galli [2]; 2.24 Kg/Ha): 100% | inhibition at 375 g/ha (Rice; 3 WAT): 13% | inhibition at 375 g/ha (Rice; 5 WAT): 7% | inhibition at 375 g/ha (Rice; 7 WAT): 7% | inhibition at 750 g/ha (Rice; 3 WAT): 7% | inhibition at 750 g/ha (Rice; 5 WAT): 2% | inhibition at 750 g/ha (Rice; 7 WAT): 0% | inhibition at 1500 g/ha (Rice; 3 WAT): 10% | inhibition at 1500 g/ha (Rice; 5 WAT): 7% | inhibition at 1500 g/ha (Rice; 7 WAT): 5% | inhibition at 3000 g/ha (Rice; 3 WAT): 15% | inhibition at 3000 g/ha (Rice; 5 WAT): 15% | inhibition at 3000 g/ha (Rice; 7 WAT): 10% | rate at which safety in rice is maintained (Rice; maximum test rate): ≥ 3.0 kg/ha | inhibition at 375 g/ha (Eleocharis kuroguwai [3]; 2 WAT): 73% | inhibition at 375 g/ha (Eleocharis kuroguwai [3]; 4 WAT): 40% | inhibition at 375 g/ha (Eleocharis kuroguwai [3]; 6 WAT): 3% | inhibition at 750 g/ha (Eleocharis kuroguwai [3]; 2 WAT): 82% | inhibition at 750 g/ha (Eleocharis kuroguwai [3]; 4 WAT): 75% | inhibition at 750 g/ha (Eleocharis kuroguwai [3]; 6 WAT): 50% | inhibition at 1500 g/ha (Eleocharis kuroguwai [3]; 2 WAT): 87% | inhibition at 1500 g/ha (Eleocharis kuroguwai [3]; 4 WAT): 83% | inhibition at 1500 g/ha (Eleocharis kuroguwai [3]; 6 WAT): 37% | inhibition at 3000 g/ha (Eleocharis kuroguwai [3]; 2 WAT): 97% | inhibition at 3000 g/ha (Eleocharis kuroguwai [3]; 4 WAT): 92% | inhibition at 3000 g/ha (Eleocharis kuroguwai [3]; 6 WAT): 65% | inhibition at 280 g/ha (Monochoria vaginalis; 0.28 Kg/Ha): 100% | inhibition at 560 g/ha (Monochoria vaginalis; 0.56 Kg/Ha): 100% | inhibition at 1120 g/ha (Monochoria vaginalis; 1.12 Kg/Ha): 100% | inhibition at 2240 g/ha (Monochoria vaginalis; 2.24 Kg/Ha): 100% | inhibition at 375 g/ha (Sagittaria trifolia; 3 WAT): 50% | inhibition at 375 g/ha (Sagittaria trifolia; 5 WAT): 23% | inhibition at 375 g/ha (Sagittaria trifolia; 7 WAT): 18% | inhibition at 750 g/ha (Sagittaria trifolia; 3 WAT): 43% | inhibition at 750 g/ha (Sagittaria trifolia; 5 WAT): 33% | inhibition at 750 g/ha (Sagittaria trifolia; 7 WAT): 13% | inhibition at 1500 g/ha (Sagittaria trifolia; 3 WAT): 40% | inhibition at 1500 g/ha (Sagittaria trifolia; 5 WAT): 13% | inhibition at 1500 g/ha (Sagittaria trifolia; 7 WAT): 7% | inhibition at 3000 g/ha (Sagittaria trifolia; 3 WAT): 72% | inhibition at 3000 g/ha (Sagittaria trifolia; 5 WAT): 43% | inhibition at 3000 g/ha (Sagittaria trifolia; 7 WAT): 38% | inhibition at 375 g/ha (Eleocharis kuroguwai [4]; 3 WAT): 80% | inhibition at 375 g/ha (Eleocharis kuroguwai [4]; 5 WAT): 52% | inhibition at 375 g/ha (Eleocharis kuroguwai [4]; 7 WAT): 15% | inhibition at 750 g/ha (Eleocharis kuroguwai [4]; 3 WAT): 83% | inhibition at 750 g/ha (Eleocharis kuroguwai [4]; 5 WAT): 68% | inhibition at 750 g/ha (Eleocharis kuroguwai [4]; 7 WAT): 13% | inhibition at 1500 g/ha (Eleocharis kuroguwai [4]; 3 WAT): 82% | inhibition at 1500 g/ha (Eleocharis kuroguwai [4]; 5 WAT): 65% | inhibition at 1500 g/ha (Eleocharis kuroguwai [4]; 7 WAT): 0% | inhibition at 3000 g/ha (Eleocharis kuroguwai [4]; 3 WAT): 93% | inhibition at 3000 g/ha (Eleocharis kuroguwai [4]; 5 WAT): 93% | inhibition at 3000 g/ha (Eleocharis kuroguwai [4]; 7 WAT): 67% | selectivity factor (GR15/GR85), EK in transplant rice (Eleocharis kuroguwai [4]; up to 5 WAT): about 2
